Assays:
[1] = Water solubility (observation); assay type: physicochemical
[2] = test system: lung leukocyte recruitment and T-helper cell polarisation; assay: Ovalbumin-induced lung inflammation model of asthma (BAL leukocyte count, splenocyte Th1/Th2 ratio); assay type: in vivo, Brown Norway rat; conditions: rat, 0.3 mg/kg daily oral
Method: Adult Brown Norway rats (200-300 g body weight; n=10 per group) were sensitised by a single intraperitoneal injection of 0.1 mg Ovalbumin on day 0. Each rat then received an intratracheal challenge with a solution of 1% ovalbumin (w/v) on day 8, and with 2% ovalbumin (w/v) on days 15, 18 and 21. The animals were then sacrificed 3 hours after the final challenge on day 21. Note that ovalbumin (Sigma; purest available grade) was made endotoxin-free by passage over EndoTrap™ Red columns (purchased from Cambrex; used in accordance with the manufacturer's instructions), and the endotoxin level was confirmed as <5 EU/mg protein using the LAL assay (QCL-1000™; Cambrex; performed in accordance with the manufacturer's instructions; 1 mg of standard endotoxin contains ˜900,000 EU/mg). […]
On sacrifice, total lung leukocyate recruitment was assessed by performing a broncheoalveolar lavage (BAL) using 4 lots of 3 ml sterile phosphate-buffered saline introduced through a tracheal cannula. For each animal, the BAL washes were combined, and the total cell population counted (using a haemocytometer). […]
The spleen was also removed from each […] and placed in RPMI+10% FCS+antibiotics. […] The resulting cell suspension was then centrifuged (328 g; 5 mins) and washed in RPMI+10% FCS+antibiotics, before being resuspended in fresh media and counted using a haemocytometer. […]

## CC(C)(C)C(=O)N[C@H]1CCCNC1=O [Compound (I′), 3-(2′,2′-dimethylpropanoylamino)-tetrahydropyridin-2-one]
[1]
  water solubility: extremely water soluble
[2]
  Th2 polarisation (Th1/Th2 ratio of CD4+ splenocytes): completely abolishes the Th2 polarisation
